These are literature values, as cited in article PMC7590008, “Slow Dissolution Kinetics of Model Peptide Fibrils” (International Journal of Molecular Sciences, 2020).

SMILES strings stand for the structures. Counter-ions that a name gives are not always drawn.

The conditions of the data set: can be considered a strong acid. The source says: First of all, for c<cs , the pH ≈6.3 is essentially the same as that of pure water (with some dissolved CO 2 ). This means that the A 8 K is a neutral salt and not a net acid or base. This implies that we can write the compound as PH ^+ TFA ^− , where P stands for the A 8 K peptide. The dry compound is a TFA salt, but with only one TFA counterion, because the carboxyl group is neutralized by one of the two ammonium groups ...

On to `O=C(O)C(F)(F)F` [TFA, Trifluoroacetate], for which the pK a entry was “≈ 1”.
